{"source": "patent US20250223404A1", "about": "“SHAPED ARTICLE COMPRISING A POLY(ARYL ETHER SULFONE) (PAES) POLYMER AND METHOD OF MAKING USING MELT PROCESSING” (Solvay Specialty Polymers USA, LLC, priority 2022, published 2025)", "molecular_target": "T1, human Estrogen receptor alpha (ERα) (Homo sapiens, UniProt P03372)", "T1 construct": "expressed in transfected cells; host or cells: GeneBLAzer ER-α-UAS-bla GripTite 293 cells (stably integrated)", "T1 sequence (P03372 311-547 limits assumed)": "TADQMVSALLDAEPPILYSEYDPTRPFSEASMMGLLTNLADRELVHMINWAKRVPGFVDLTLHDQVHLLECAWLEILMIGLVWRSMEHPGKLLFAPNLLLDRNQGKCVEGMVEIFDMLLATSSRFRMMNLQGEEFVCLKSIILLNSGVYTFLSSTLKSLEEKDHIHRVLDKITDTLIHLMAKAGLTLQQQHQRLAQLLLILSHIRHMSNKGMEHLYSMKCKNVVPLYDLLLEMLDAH", "assay": "GeneBLAzer Cell-Based Nuclear Receptor Assay (beta-lactamase reporter), ER-α-UAS-bla GripTite 293 cells", "details": "for estrogenic activity on ERα cells compared with BPA, BPS and BP: in words", "protocol": "The response value “EC50” was measured by using the GeneBLAzer® Cell-Based Nuclear Receptor Assay technology which uses the GeneBLAzer®.\nThe monomers (see Table 7) were dissolved in 100% biological-grade DMSO at a concentration of 7 to 250000 nM (nanomolar). The ER-α-UAS-bla GripTite™ 293 cells were used to measure EC50. The higher the EC50 value is, the weaker the estrogenic agonist activity is for the monomer tested.\nThe GeneBLAzer® ER-α-UAS-bla GripTite™ cells contain a ligand-binding domain (LBD) of the human Estrogen receptor alpha (ERα) fused to a DNA-binding domain of GAL4 plasmid stably integrated in the GeneBLAzer® UAS-bla GripTite™ cell line. The GeneBLAzer® UAS-bla GripTite™ cells stably express a beta-lactamase reporter gene under the transcriptional control of an upstream activator sequence (UAS). When an estrogenic agonist binds to the LBD of the GAL4 (DBD)-ER α (LBD) fusion protein, the protein binds to the UAS, resulting in expression of beta-lactamase.", "key": {"[1]": {"details": "estrogen agonist activity on ERα cells, read-out: EC50 value"}, "[2]": {"details": "estrogen agonist activity, ER-α-UAS-bla GripTite 293 cells, monomers in DMSO, 7 to 250000 nM, read-out: EC50 (nM) response value to the estrogen receptor alpha"}}, "note": "Read-outs that look alike come from different tables or passages of the source.", "data": [{"smiles": "Oc1cc2ccccc2cc1O", "note": "[2,3-NDO, 2,3 Napthalene diol]", "values": [{"measurement": "EC50", "setting": "[1]", "value": "≥ 30000", "unit": "nM"}, {"measurement": "EC50", "setting": "[2]", "value": "> 79100", "unit": "nM"}, {"measurement": "estrogenic activity on ERα cells compared with BPA, BPS and BP", "value": "much lower estrogenic activity"}]}, {"smiles": "Oc1ccc2ccc(O)cc2c1", "note": "[2,7-NDO, 2,7 Napthalene diol]", "values": [{"measurement": "EC50", "setting": "[2]", "value": 32000, "unit": "nM"}, {"measurement": "estrogenic activity on ERα cells compared with BPA, BPS and BP", "value": "much lower estrogenic activity"}]}, {"smiles": "O=S(=O)(c1ccc(O)cc1)c1ccc(O)cc1", "note": "[BPS, 4,4′-dihydroxydiphenyl sulfone, reference compound]", "values": [{"measurement": "EC50", "setting": "[2]", "value": 791, "unit": "nM"}]}, {"smiles": "Oc1cccc2c(O)cccc12", "note": "[1,5-NDO, 1,5 Naphthalene diol]", "values": [{"measurement": "EC50", "setting": "[1]", "value": "≥ 30000", "unit": "nM"}, {"measurement": "EC50", "setting": "[2]", "value": "> 79100", "unit": "nM"}, {"measurement": "estrogenic activity on ERα cells compared with BPA, BPS and BP", "value": "much lower estrogenic activity"}]}]}
